In US20220274967A1, “BCAT MODULATION” (Icagen, LLC, priority 2019, published 2022) one finds IC50 data, which are given here for 40 compounds.

The target in assay [1] is T1, BCAT2 (Homo sapiens, UniProt O15382).
T1 sequence (O15382 28-392): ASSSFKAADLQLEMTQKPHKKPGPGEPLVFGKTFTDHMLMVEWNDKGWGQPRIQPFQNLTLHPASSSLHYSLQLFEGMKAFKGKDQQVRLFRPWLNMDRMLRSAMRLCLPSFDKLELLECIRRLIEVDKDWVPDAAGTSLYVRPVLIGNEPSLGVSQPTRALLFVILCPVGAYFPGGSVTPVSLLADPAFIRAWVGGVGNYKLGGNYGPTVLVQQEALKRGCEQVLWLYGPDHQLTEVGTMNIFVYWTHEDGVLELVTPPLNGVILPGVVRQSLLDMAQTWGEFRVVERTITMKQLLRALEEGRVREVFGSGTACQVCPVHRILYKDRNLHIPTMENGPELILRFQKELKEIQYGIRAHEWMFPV
The assay is described as follows: BCAT2 enzyme inhibition (human). Format: biochemical. As for the experimental part: In further embodiments, the functional modulation of BCAT2 is assayed using a cell-free assay. In various embodiments, the cell-free assay is an enzyme-coupled fluorescent assay. For example, the disclosure contemplates use of an assay that monitors the production of L-glutamate from branch-chain amino acids and α-ketoglutarate through the coupling of hBCATm activity to two additional enzymes, L-Glutamate Oxidase (L-GOx) and Horseradish Peroxidase (HRP). Specifically, L-GOx catabolizes L-glutamate to generate α-ketoglutarate and […], the latter being utilized by HRP and leading to the formation of fluorescent resorufin from the redox-sensitive dye Amplex Red. In some embodiments, the test compound is classified as a candidate compound if a decrease in L-glutamate is measured. In further embodiments, the test compound is classified as a candidate compound if a decrease in α-ketoglutarate is measured.

Assay [2] concerns GM00371 cells. The assay is described as follows: Viability assay (Cell titer glo) in the 3-HIB assay. The following applies: Homo sapiens, 24 h, read-out: 3HIB INHIBITION IC50 (μM) MEAN GM00371 cells Viablility Assay. The assay is classed as cell-based, human. As for the experimental part:
Cell Plating: Cells (Coriell Institute GM00371 cells) were plated (96-well clear bottom sterile plate; Greiner 655098) at 10,000 cells/0.1 mL in Eagle's minimum essential medium (EMEM)/15% FBS (Gibco 16000-044) with a Combi dispenser in a cell culture hood and incubated at 37° C. and 5% CO2 overnight.
Compound Dilution: Compound were prepared as 33.3× intermediate dilution in DMSO in 96 well round polystyrene plates. For 30 μM final maximum start with 30 μL of 10 mM in DMSO. 10-12 1:3 serial dilutions were prepared from left to right (20 μL+40 μL DMSO). A 10× secondary dilution was prepare in EMEM by taking 7.5 μL 33.3× and transfer to replicate 96 well round polystyrene plates and then adding 242.5 μL EMEM A 1× final dilution in EMEM was prepared by taking 50 μL 10× dilution and transferring to replicate 96 well polypropylene assay block (Costar 3956) and adding 450 μL EMEM A control was prepared for maximal compound inhibition by taking 20 μL 10 mM Reference Compound A and adding 40 μL DMSO for a concentration of 3.3 mM To 7.5 μL of the 3.3 mM Reference Compound A solution and added 242.5 μL EMEM to make a 100 μM solution. The subsequent Reference Compound A solution was diluted with EMEM to achieve a final concentration of 10 μM. The structure of Reference Compound A is:
A control was prepared for maximal compound toxicity by taking 7.5 μL Reference Compound B and 242.5 μL EMEM to make […]. 50 μL of that 100 μM Reference Compound B solution was combined with 450 μL EMEM to achieve a concentration of 30 μM. The structure of Reference Compound B is
Compound Treatment: Media was aspirated from the cells and 100 μL of D-PBS (ThermoFisher 14190144) was added and then removed. 100 μL of diluted compound was added to the cells in the place and the cells were incubated at 37° C. and 5% CO2 for 24 hours.
Viability Assay: To the cells remaining in the plate 25 μL D-PBS and 25 μL Cell titer glo reagent (Promega G7572). The plate was placed on a shaker for 2 minutes, incubated at room temperature in the dark and then read on a Clariostar microplate reader.

The structures appear in SMILES notation.

`CNC(=O)c1ccc2c(c1)nc(-c1ccc(OC)c(OC)c1)n2[C@H]1CCC[C@@H](NC(=O)c2ccc(Br)s2)C1` [Compound 158] came in with an IC50 in assay [1] of more than 1000 nM.
In assay [1], `COC(=O)c1ccc2c(n1)nc(-c1ccccn1)n2[C@@H]1CCC[C@H](NC(=O)c2ccc(Br)s2)C1` [Compound 301] had an IC50 of 100 to 500 nM.
Take `CNC(=O)c1ccc2c(C3CCCC(NC(=O)c4ccc(Br)s4)C3)c(-c3ccccc3)[nH]c2c1` (centres unmarked) [Compound 283, 3-(3-(5-bromothiophene-2-carboxamido)cyclohexyl)-N-methyl-2 phenyl-1H-indole-6-carboxamide]: the figures for the half-maximal inhibitory concentration (IC50) in assay [2] and in assay [1] were not below 1 µM and more than 1000 nM, respectively.
In assay [1], `CNC(=O)c1ccc2c(c1)nc(-c1ccc3c(c1)OC(F)(F)O3)n2[C@H]1CCC[C@@H](NC(=O)c2ccc(Br)s2)C1` [Compound 160] displayed an IC50 of more than 1000 nM.
The same measure, in the same setting: in the case of `CNC(=O)c1ccc2c(c1)nc(-c1ccc(C)cc1)n2[C@H]1CCC[C@@H](NC(=O)c2ccc(Br)s2)C1` [Compound 170] it was 500 to 1000 nM.
Turning to `CNC(=O)c1ccc2c(c1)nc(-c1ccc(C#N)cc1)n2[C@H]1CCC[C@@H](NC(=O)c2ccc(Br)s2)C1` [Compound 162], the IC50 in assay [1] is more than 1000 nM.
On the same count and under the same terms, with `CNC(=O)c1ccc2c(c1)nc(-c1ccccn1)n2[C@@H]1CCC[C@H](NC(=O)c2ccc(Br)o2)C1` [Compound 125] the figure was more than 1000 nM; with `CNC(=O)c1ccc2c(c1)nc(-c1cc(Cl)cc(C)c1O)n2[C@H]1CCC[C@@H](NC(=O)c2ccc(Br)s2)C1` [Compound 182], more than 1000 nM; with `CNC(=O)c1ccc2c(c1)nc(-c1ccc(O)cn1)n2[C@H]1CCC[C@@H](NC(=O)c2ccc(Cl)s2)C1` [Compound 191], more than 1000 nM.
The same measure, in the same setting: in the case of `CNC(=O)c1ccc2c([C@H]3CCC[C@H](NC(=O)c4ccc(-c5ccccc5)s4)C3)c(-c3ccccc3)[nH]c2c1` [Compound 282] it was more than 1000 nM; in that of `CNC(=O)c1ccc2c(c1)nc(-c1ccc(C)cn1)n2[C@H]1CCC[C@@H](NC(=O)c2ccc(Br)s2)C1` [Compound 153], 500 to 1000 nM.
As to `CNC(=O)c1ccc2c(C3CCCC(NC(=O)c4cccs4)C3)c(-c3ccccc3)[nH]c2c1` (centres unmarked) [Compound 290], the results for the half-maximal inhibitory concentration (IC50) in assay [2] and in assay [1] were not below 1 µM and more than 1000 nM, respectively.
Consider `CNC(=O)c1ccc2c(c1)nc(-c1cc(Cl)ccc1O)n2[C@H]1CCC[C@@H](NC(=O)c2ccc(C#N)s2)C1` [Compound 179], for which the IC50 in assay [1] was in the range of 100 to 500 nM.
For `CNC(=O)c1cc2nc(-c3ccccc3)n([C@H]3CCC[C@@H](NC(=O)c4ccc(Br)s4)C3)c2cn1` [Compound 297], the IC50 is 0.1 to 0.5 µM in assay [2] and less than 100 nM in assay [1].
Take `CNC(=O)c1ccc2c(c1)nc(-c1ccc(Cl)cc1)n2[C@H]1CCC[C@@H](NC(=O)c2ccc(Br)s2)C1` [Compound 164]: in assay [1], the IC50 lay within 100 to 500 nM.
As to `CNC(=O)c1ccc2c(c1)nc(-c1ccccc1C(N)=O)n2[C@H]1CCC[C@@H](NC(=O)c2ccc(C#N)s2)C1` [Compound 142], the results for the IC50 in assay [2] and in assay [1] were not below 1 µM and less than 100 nM, respectively.
In the case of `CNC(=O)c1ccc2c(c1)nc(-c1cccc(C#N)c1)n2[C@H]1CCC[C@@H](NC(=O)c2ccc(Br)s2)C1` [Compound 165], the IC50 in assay [1] was more than 1000 nM.
In the case of `CNC(=O)c1ccc2c(c1)nc(-c1ccccn1)n2[C@H]1CC[C@@H](NC(=O)c2ccc(Br)s2)C1` [Compound 132], the IC50 in assay [2] is not below 1 µM; in assay [1], 100 to 500 nM.
In assay [1], `CNC(=O)c1ccc2c(c1)nc(-c1ccc(C#N)c(Cl)n1)n2[C@H]1CCC[C@@H](NC(=O)c2ccc(C#N)s2)C1` [Compound 187] yielded an IC50 of more than 1000 nM.
Still for that read-out and setting: with `COC(=O)c1ccc2c(n1)nc(-c1ccccn1)n2[C@H]1CCC[C@@H](NC(=O)c2cccs2)C1` [Compound 300] the figure was more than 1000 nM.
In the case of `CNC(=O)c1cc2nc(-c3ccccc3F)n([C@H]3CCC[C@@H](NC(=O)c4ccc(Cl)s4)C3)c2cc1OC` [Compound 212], the concentration for half-maximal inhibition (IC50) is less than 0.1 µM in assay [2] and less than 100 nM in assay [1].
As for `C=CC(=O)Nc1ccc(C(=O)N[C@H]2CCC[C@@H](n3c(-c4ccccn4)nc4cc(C(=O)NC)ccc43)C2)s1` [Compound 110], the IC50 in assay [2] was not below 1 µM; in assay [1], more than 1000 nM.
Consider `C#Cc1cccc(-c2nc3cc(C(=O)NC)ccc3n2[C@H]2CCC[C@@H](NC(=O)c3ccc(Br)s3)C2)c1` [Compound 167], for which the IC50 in assay [1] was more than 1000 nM.
`CNC(=O)c1ccc2c(c1)nc(-c1ncccc1OC)n2[C@H]1CCC[C@@H](NC(=O)c2ccc(Br)s2)C1` [Compound 150] had an IC50 in assay [1] of more than 1000 nM.
Consider `CNC(=O)c1ccc2c(c1)nc(-c1ccc(C)s1)n2[C@H]1CCC[C@@H](NC(=O)c2ccc(Br)s2)C1` [Compound 171], for which the IC50 in assay [1] is 100 to 500 nM.
Regarding `CNC(=O)c1ccc2c(c1)nc(-c1ccccn1)n2[C@@H]1CCC[C@H](NC(=O)c2ccc(C(C)=O)s2)C1` [Compound 121], the figures for the IC50 in assay [2] and in assay [1] were not below 1 µM and more than 1000 nM, respectively.
Compound `CNC(=O)c1ccc2c(c1)nc(-c1ccccn1)n2[C@@H]1CCC[C@H](NC(=O)c2ccc(Br)cc2)C1` [Compound 114] showed an IC50 in assay [1] of 100 to 500 nM.
As for `C=CC(=O)NCc1ccc(C(=O)N[C@H]2CCC[C@@H](n3c(-c4ccccn4)nc4cc(C(=O)NC)ccc43)C2)s1` [Compound 108], the IC50 was not below 1 µM in assay [2] and more than 1000 nM in assay [1].
As for `CNC(=O)c1cc2nc(-c3cccc(F)c3O)n([C@H]3CCC[C@@H](NC(=O)c4ccc(Br)s4)C3)c2cc1F` [Compound 209], the results for the IC50 in assay [2] and in assay [1] were 0.1 to 0.5 µM and less than 100 nM, respectively.
For `CNC(=O)c1ccc2c(c1)nc(-c1ccccn1)n2C1CCCC(NC(=O)c2ccc(C3CC3)s2)C1` (centres unmarked) [Compound 144], in that order: not below 1 µM and 500 to 1000 nM.
With `CNC(=O)c1ccc2c(c1)nc(-c1csc3c1CCCC3)n2[C@H]1CCC[C@@H](NC(=O)c2ccc(Br)s2)C1` [Compound 168], the IC50 in assay [1] lay in the range of 500 to 1000 nM.
For the compound `CNC(=O)c1ccc2c(c1)nc(-c1ccccn1)n2[C@@H]1CCC[C@H](NC(=O)c2ccc(C(=O)OC)s2)C1` [Compound 122], the IC50 in assay [2] was not below 1 µM; in assay [1], more than 1000 nM.
With `CNC(=O)c1cc2nc(-c3ccccn3)n([C@H]3CCC[C@@H](NC(=O)c4ccc(Cl)s4)C3)c2cc1OC` [Compound 214], the results for the IC50 in assay [2] and in assay [1] were 0.1 to 0.5 µM and less than 100 nM, respectively.
As for `CNC(=O)c1ccc2c(n1)nc(-c1ccccn1)n2[C@@H]1CCC[C@H](NC(=O)c2ccc(Br)s2)C1` [Compound 305], in assay [1], the IC50 was more than 1000 nM.
Same read-out and setting: in the case of `CNC(=O)c1ccc2c(c1)nc(-c1ccccc1NC(C)=O)n2[C@H]1CCC[C@@H](NC(=O)c2ccc(C#N)s2)C1` [Compound 130] it was 500 to 1000 nM; in that of `CNC(=O)c1ccc2c(c1)nc(-c1cccc(C)n1)n2[C@H]1CCC[C@@H](NC(=O)c2ccc(Br)s2)C1` [Compound 148], less than 100 nM; in that of `CNC(=O)c1ccc2c(c1)nc(-c1ccccc1N1CCOCC1)n2[C@H]1CCC[C@@H](NC(=O)c2ccc(Br)s2)C1` [Compound 159], 100 to 500 nM.
On the same count and under the same terms, with `CNC(=O)c1ccc2c(c1)nc(-c1cc(Cl)ccc1O)n2[C@H]1CCC[C@@H](NC(=O)c2ccc(Cl)s2)C1` [Compound 190] the figure was 100 to 500 nM; with `CNC(=O)c1ccc2c(c1)nc(-c1ccc(O)cn1)n2[C@H]1CCC[C@@H](NC(=O)c2ccc(Br)s2)C1` [Compound 186], 100 to 500 nM.
For `O=C(N[C@H]1CCC[C@@H](n2c(-c3ccccn3)nc3cc(CO)ccc32)C1)c1ccc(Br)s1` [Compound 119], the 50% inhibitory concentration (IC50) in assay [1] is 100 to 500 nM.
